Experimental data from PubChem BioAssay (NCI).
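Briefly, cells in 96-well plates were exposed to five compound concentrations for 48 h, and endpoints were estimated by linear interpolation. GI50 marks 50% less growth. TGI denotes the concentration required for complete inhibition of growth.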

Tests used:
Test in all cases: DTP human tumour cell line panel, 48 h
COLO 205 colon = tested on: COLO 205 colon
PC-3 prostate = tested on: PC-3 prostate
SK-MEL-5 melanoma = tested on: SK-MEL-5 melanoma
RPMI-8226 leukemia = tested on: RPMI-8226 leukemia
OVCAR-5 ovarian = tested on: OVCAR-5 ovarian
MALME-3M melanoma = tested on: MALME-3M melanoma
OVCAR-8 ovarian = tested on: OVCAR-8 ovarian
HT29 colon = tested on: HT29 colon
NCI-H522 lung = tested on: NCI-H522 lung
CCRF-CEM leukemia = tested on: CCRF-CEM leukemia
NCI-H23 lung = tested on: NCI-H23 lung
SNB-75 CNS = tested on: SNB-75 CNS
ACHN renal = tested on: ACHN renal
TK-10 renal = tested on: TK-10 renal
SF-539 CNS = tested on: SF-539 CNS
M14 melanoma = tested on: M14 melanoma
U251 CNS = tested on: U251 CNS
T-47D breast = tested on: T-47D breast
NCI-H460 lung = tested on: NCI-H460 lung
DU-145 prostate = tested on: DU-145 prostate
MDA-MB-435 = tested on: MDA-MB-435
SF-295 CNS = tested on: SF-295 CNS
UACC-62 melanoma = tested on: UACC-62 melanoma
IGROV1 ovarian = tested on: IGROV1 ovarian
UACC-257 melanoma = tested on: UACC-257 melanoma
MOLT-4 leukemia = tested on: MOLT-4 leukemia
CAKI-1 renal = tested on: CAKI-1 renal
EKVX NSCLC = tested on: EKVX NSCLC
HL-60(TB) leukemia = tested on: HL-60(TB) leukemia
UO-31 renal = tested on: UO-31 renal
HCT-116 colon = tested on: HCT-116 colon
HCC-2998 colon = tested on: HCC-2998 colon
HOP-62 NSCLC = tested on: HOP-62 NSCLC
SK-MEL-28 melanoma = tested on: SK-MEL-28 melanoma
OVCAR-4 ovarian = tested on: OVCAR-4 ovarian
786-0 renal = tested on: 786-0 renal
SK-MEL-2 melanoma = tested on: SK-MEL-2 melanoma
OVCAR-3 ovarian = tested on: OVCAR-3 ovarian
SF-268 CNS = tested on: SF-268 CNS
SR leukemia = tested on: SR leukemia
LOX IMVI melanoma = tested on: LOX IMVI melanoma
A498 renal = tested on: A498 renal
HCT-15 colon = tested on: HCT-15 colon
A549 NSCLC = tested on: A549 NSCLC
KM12 colon = tested on: KM12 colon
K-562 leukemia = tested on: K-562 leukemia
HOP-92 NSCLC = tested on: HOP-92 NSCLC
SK-OV-3 ovarian = tested on: SK-OV-3 ovarian
SN12C renal = tested on: SN12C renal
NCI-H226 lung = tested on: NCI-H226 lung
MDA-MB-231 breast = tested on: MDA-MB-231 breast
SNB-19 CNS = tested on: SNB-19 CNS
HS 578T breast = tested on: HS 578T breast
SW-620 colon = tested on: SW-620 colon
BT-549 breast = tested on: BT-549 breast
NCI/ADR-RES ovarian = tested on: NCI/ADR-RES ovarian
MCF7 breast = tested on: MCF7 breast

`COc1ccc(-c2cnc(NC(=O)CCCCCCNC(=O)C(O)(O)C(F)(F)F)s2)cc1` was tested, and the GI50 (COLO 205 colon) was 540 nM, the TGI (COLO 205 colon) was 1280 nM and the GI50 (PC-3 prostate) was 1210 nM. The TGI (PC-3 prostate) was greater than 30.8 µM, the GI50 (SK-MEL-5 melanoma) was 921 nM and the TGI (SK-MEL-5 melanoma) was 2860 nM. For the same compound, the GI50 (RPMI-8226 leukemia) was 857 nM, the TGI (RPMI-8226 leukemia) was greater than 30.8 µM and the GI50 (OVCAR-5 ovarian) was 907 nM. The TGI (OVCAR-5 ovarian) was 5.5 µM, the GI50 (MALME-3M melanoma) was 1020 nM and the TGI (MALME-3M melanoma) was 3.36 µM. It also gave a GI50 (OVCAR-8 ovarian) of 967 nM, a TGI (OVCAR-8 ovarian) of 6.85 µM and a GI50 (HT29 colon) of 946 nM. For the same compound, the TGI (HT29 colon) was greater than 30.8 µM, the GI50 (NCI-H522 lung) was 908 nM and the TGI (NCI-H522 lung) was 4.56 µM. For the same compound, the GI50 (CCRF-CEM leukemia) was 1340 nM, the TGI (CCRF-CEM leukemia) was greater than 30.8 µM and the GI50 (NCI-H23 lung) was 1230 nM. The TGI (NCI-H23 lung) was 8.08 µM, the GI50 (SNB-75 CNS) was 1760 nM and the TGI (SNB-75 CNS) was greater than 30.8 µM. The GI50 (ACHN renal) was 1010 nM, the TGI (ACHN renal) was 4.19 µM and the GI50 (TK-10 renal) was 481 nM. It also gave a TGI (TK-10 renal) greater than 30.8 µM, a GI50 (SF-539 CNS) of 1370 nM and a TGI (SF-539 CNS) greater than 30.8 µM. It also gave a GI50 (M14 melanoma) of 1450 nM, a TGI (M14 melanoma) greater than 30.8 µM and a GI50 (U251 CNS) of 862 nM. For the same compound, the TGI (U251 CNS) was 3.78 µM, the GI50 (T-47D breast) was 864 nM and the TGI (T-47D breast) was 3.78 µM. It also gave a GI50 (NCI-H460 lung) of 735 nM, a TGI (NCI-H460 lung) of 5.79 µM and a GI50 (DU-145 prostate) of 1030 nM. For the same compound, the TGI (DU-145 prostate) was 7.67 µM, the GI50 (MDA-MB-435) was 1000 nM and the TGI (MDA-MB-435) was 10.2 µM. For the same compound, the GI50 (SF-295 CNS) was 742 nM, the TGI (SF-295 CNS) was 1820 nM and the GI50 (UACC-62 melanoma) was 662 nM. For the same compound, the TGI (UACC-62 melanoma) was 1880 nM, the GI50 (IGROV1 ovarian) was 987 nM and the TGI (IGROV1 ovarian) was 5.31 µM. It also gave a GI50 (UACC-257 melanoma) of 1570 nM, a TGI (UACC-257 melanoma) of 24.6 µM and a GI50 (MOLT-4 leukemia) of 1100 nM. It also gave a TGI (MOLT-4 leukemia) greater than 30.8 µM, a GI50 (CAKI-1 renal) of 975 nM and a TGI (CAKI-1 renal) of 7.45 µM. The GI50 (EKVX NSCLC) was 1970 nM, the TGI (EKVX NSCLC) was greater than 30.8 µM and the GI50 (HL-60(TB) leukemia) was 1400 nM. It also gave a TGI (HL-60(TB) leukemia) greater than 30.8 µM, a GI50 (UO-31 renal) of 904 nM and a TGI (UO-31 renal) of 3.98 µM. For the same compound, the GI50 (HCT-116 colon) was 540 nM, the TGI (HCT-116 colon) was 4.41 µM and the GI50 (HCC-2998 colon) was 1360 nM. It also gave a TGI (HCC-2998 colon) of 4.53 µM, a GI50 (HOP-62 NSCLC) of 1140 nM and a TGI (HOP-62 NSCLC) greater than 30.8 µM. It also gave a GI50 (SK-MEL-28 melanoma) of 1370 nM, a TGI (SK-MEL-28 melanoma) greater than 30.8 µM and a GI50 (OVCAR-4 ovarian) of 2110 nM. It also gave a TGI (OVCAR-4 ovarian) greater than 30.8 µM, a GI50 (786-0 renal) of 1270 nM and a TGI (786-0 renal) of 15.1 µM. The GI50 (SK-MEL-2 melanoma) was 1010 nM, the TGI (SK-MEL-2 melanoma) was 4.49 µM and the GI50 (OVCAR-3 ovarian) was 635 nM. The TGI (OVCAR-3 ovarian) was 2110 nM, the GI50 (SF-268 CNS) was 1130 nM and the TGI (SF-268 CNS) was 6.26 µM. The GI50 (SR leukemia) was 601 nM, the TGI (SR leukemia) was greater than 30.8 µM and the GI50 (LOX IMVI melanoma) was 678 nM. The TGI (LOX IMVI melanoma) was 1760 nM, the GI50 (A498 renal) was 288 nM and the TGI (A498 renal) was 1530 nM. The GI50 (HCT-15 colon) was 1600 nM, the TGI (HCT-15 colon) was 8.01 µM and the GI50 (A549 NSCLC) was 1380 nM. The TGI (A549 NSCLC) was 11.5 µM, the GI50 (KM12 colon) was 1080 nM and the TGI (KM12 colon) was 5.48 µM. It also gave a GI50 (K-562 leukemia) of 709 nM, a TGI (K-562 leukemia) greater than 30.8 µM and a GI50 (HOP-92 NSCLC) of 561 nM. The TGI (HOP-92 NSCLC) was 2110 nM, the GI50 (SK-OV-3 ovarian) was 863 nM and the TGI (SK-OV-3 ovarian) was 2270 nM. It also gave a GI50 (SN12C renal) of 1210 nM, a TGI (SN12C renal) of 10.6 µM and a GI50 (NCI-H226 lung) of 2200 nM. For the same compound, the TGI (NCI-H226 lung) was 12 µM, the GI50 (MDA-MB-231 breast) was 719 nM and the TGI (MDA-MB-231 breast) was 2500 nM. It also gave a GI50 (SNB-19 CNS) of 1280 nM, a TGI (SNB-19 CNS) of 9.44 µM and a GI50 (HS 578T breast) of 952 nM. For the same compound, the TGI (HS 578T breast) was 10.5 µM, the GI50 (SW-620 colon) was 623 nM and the TGI (SW-620 colon) was 2360 nM. For the same compound, the GI50 (BT-549 breast) was 1810 nM, the TGI (BT-549 breast) was 12.9 µM and the GI50 (NCI/ADR-RES ovarian) was 1610 nM. The TGI (NCI/ADR-RES ovarian) was 8.78 µM, the GI50 (MCF7 breast) was 1310 nM and the TGI (MCF7 breast) was greater than 30.8 µM.
